Among the data in US20160221965A1, “DISUBSTITUTED TRIFLUOROMETHYL PYRIMIDINONES AND THEIR USE” (BAYER PHARMA AKTIENGESELLSCHAFT, priority 2013, published 2016) are IC50 values, retold here.

One assay concerns the target T1, human CCR2 (Homo sapiens, UniProt P41597).
T1 construct: host or cells: Chem-1 cell line
T1 sequence (P41597 1-360 isoform P41597-2): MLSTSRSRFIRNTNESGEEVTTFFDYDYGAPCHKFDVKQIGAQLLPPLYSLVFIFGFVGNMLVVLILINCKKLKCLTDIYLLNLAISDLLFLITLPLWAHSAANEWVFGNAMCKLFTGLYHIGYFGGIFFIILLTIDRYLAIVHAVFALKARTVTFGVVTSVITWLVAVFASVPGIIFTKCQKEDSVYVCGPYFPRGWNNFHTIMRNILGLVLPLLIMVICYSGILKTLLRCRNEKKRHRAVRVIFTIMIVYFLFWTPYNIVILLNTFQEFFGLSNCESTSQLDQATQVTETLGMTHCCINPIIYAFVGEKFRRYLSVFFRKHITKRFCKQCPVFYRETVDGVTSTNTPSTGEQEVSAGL
The assay is described as follows: Functional Ca2+ release test (B-1). Type of assay: cell-based. To be noted: Chem-1 cell line transfected with human CCR2, inhibition of MCP-1 effect, MCP-1 at EC50 (about 5 nM), Fluo-4. As to the method: The antagonistic action of test substances on CCR2 was determined in a functional Ca^2+ release test. Binding of CCL2/MCP-1 to CCR2 leads to a change in the conformation of the receptor resulting in Gi/Gq protein activation and intracellular signal cascade. This involves, inter alia, an intracellular Ca^2+ release. The test cell used was a Chem-1 cell line transfected with human CCR2 (ChemiSCREEN™ CCR2B Calcium-Optimized FLIPR Cell Line, Merck Millipore).
(§1) The test substances were dissolved in dimethyl sulphoxide (DMSO) at a concentration of 10 mM and serially diluted with DMSO in steps of 1:3.16 for a 10-point dose/activity analysis. According to the desired test concentrations, the substances were pre-diluted in Tyrode with 2 mM CaCl2 and 0.05% BSA.
The cells, cultivated in DMEM high glucose [supplemented with 10% FCS, 1 mM pyruvate, 15 mM HEPES, 500 μg/ml geniticin and non-essential amino acids (NEAA)], were sown at 5000 cells/25 μl in 384 well, μCLEAR/black cell culture plates from Greiner (#781092) and incubated at 37° C. for 24 h. The sowing medium consisted of DMEM high glucose [supplemented with 5% FCS, 1 mM pyruvate, 15 mM HEPES, 50 U/ml penicillin, 50 μg/ml streptomycin and non-essential amino acids (NEAA)]. The medium was then removed and the cells were charged for 60 min at 37° C. with Fluo-4 dye [25 μl Tyrode with 3 μM Fluo-4 AM (1 mM DMSO stock solution), 0.4 mg/ml Brilliant Black, 2.5 mM probenicid, 0.03% Pluronic F-127]. The cells were pre-incubated for 10 min with 10 μl of the test substances diluted in buffer, and 20 μl of agonist solution (MCP-1 in Tyrode with 0.05% BSA) were then added. MCP-1 was employed at the concentration which corresponds to the EC50 which had been determined in a preliminary test (usually about 5 nM). Ca^2+ release was monitored over a period of 120 s in 1 s increments in a proprietary fluorescence imaging reader. The molar concentration of the test substance which caused 50% inhibition of the MCP-1 effect (IC50) was determined using a 4-parameter logistic function (Hill function).

The next assay addresses T2, murine CCR2 (Mus musculus, UniProt P51683).
T2 construct: host or cells: U2OS β-arrestin cell line
The assay is described as follows: Functional β-arrestin recruiting test with human MCP-1 (B-2a). Type of assay: cell-based. To be noted: U2OS β-arrestin cell line transfected with murine CCR2; agonist human MCP-1 at EC50 (about 3 nM). As to the method: The antagonistic action of test substances on CCR2 was determined in a β-arrestin test. The PathHunter β-arrestin GPCR test system (DiscoveRx Corporation, Ltd.) is a cell-based functional method for detecting binding of β-arrestin to an activated receptor. The molecular basis is a β-galactosidase complementation measured by the enzymatic conversion of a chemiluminescent substrate. The test cell used was a U2OS β-arrestin cell line transfected with murine CCR2 (93-0543C3, DiscoveRx Corporation, Ltd.).
as §1
The cells, cultivated in MEM Eagle (supplemented with 10% FCS, 50 U/ml of penicillin, 50 μg/ml of streptomycin, 250 μg/ml of hygromycin and 500 μg/ml of geniticin), were sown at 2000 cells/25 μl in 384 well, μCLEAR/black cell culture plates from Greiner (#781092) and incubated at 37° C. for 24 h. The sowing medium consisted of Opti-MEM (supplemented with 1% FCS, 50 U/ml of penicillin and 50 μg/ml of streptomycin). The cells were pre-incubated for 10 min with 10 μl of the test substances diluted in buffer, and 10 μl of agonist solution [human MCP-1 (PeproTech, #300-04) in Tyrode with 0.05% BSA] were then added. The human MCP-1 was employed at the concentration which corresponds to the EC50 which had been determined in a preliminary test (usually about 3 nM). After 90 min of incubation at 37° C., the solution was removed, and recruitment of β-arrestin to CCR2 was detected with the aid of the PathHunter detection reagent (93-001, DiscoveRx Corporation, Ltd.) according to the instructions of the manufacturer. Luminescence was measured after an incubation time of 60 min using a proprietary luminescence imaging measuring instrument. The molar concentration of the test substance which caused 50% inhibition of the MCP-1 effect (IC50) was determined using a 4-parameter logistic function (Hill function).

T2 sequence (P51683 whole entry): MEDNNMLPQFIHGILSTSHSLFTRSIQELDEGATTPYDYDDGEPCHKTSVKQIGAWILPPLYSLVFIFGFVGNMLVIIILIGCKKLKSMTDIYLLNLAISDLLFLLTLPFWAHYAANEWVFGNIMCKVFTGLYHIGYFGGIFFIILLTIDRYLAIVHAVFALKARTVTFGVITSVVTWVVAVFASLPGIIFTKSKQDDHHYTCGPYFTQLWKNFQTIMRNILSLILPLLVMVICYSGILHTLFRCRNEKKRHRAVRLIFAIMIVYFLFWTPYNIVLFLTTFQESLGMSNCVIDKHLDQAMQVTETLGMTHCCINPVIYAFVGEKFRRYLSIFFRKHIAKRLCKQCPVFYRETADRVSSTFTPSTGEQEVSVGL

Turning to `Nc1nc(C(F)(F)F)c(Oc2ccc(F)c(C(F)(F)F)c2)c(=O)[nH]1` [Example 6, 2-amino-5-[4-fluoro-3-(trifluoromethyl)phenoxy]-6-(trifluoromethyl)pyrimidin-4(3H)-one], the IC50 (in general, the concentration that gives 50% inhibition) was 5.4 nM against human CCR2 and 150 nM at murine CCR2.
Regarding `CCCCc1nc(C(F)(F)F)c(Cc2ccc(Cl)c(Cl)c2)c(=O)[nH]1` [Example 22, 2-butyl-5-(3,4-dichlorobenzyl)-6-(trifluoromethyl)pyrimidin-4(3H)-one], the 50% inhibitory concentration (IC50) came to 110 nM against human CCR2 and 740 nM on murine CCR2.
For `Nc1nc(C(F)(F)F)c(Oc2ccc(F)c(F)c2)c(=O)[nH]1` [Example 10, 2-amino-5-(3,4-difluorophenoxy)-6-(trifluoromethyl)pyrimidin-4(3H)-one], in that order: 43 nM and 1300 nM.
In the same order, the values of `O=c1[nH]c(C2CC2)nc(C(F)(F)F)c1Cc1ccc(Cl)c(C(F)(F)F)c1` [Example 27, 5-[4-chloro-3-(trifluoromethyl)benzyl]-2-cyclopropyl-6-(trifluoromethyl)pyrimidin-4(3H)-one] are 63 nM and 360 nM.
For `NC(=O)Cc1nc(C(F)(F)F)c(Oc2ccc(F)c(C(F)(F)F)c2)c(=O)[nH]1` [Example 49], in that order: 91 nM and 380 nM.
`CCc1nc(C(F)(F)F)c(Cc2ccc(Cl)c(C(F)(F)F)c2)c(=O)[nH]1` [Example 26, 5-[4-chloro-3-(trifluoromethyl)benzyl]-2-ethyl-6-(trifluoromethyl)pyrimidin-4(3H)-one]: the 50% inhibitory concentration (IC50) was found to be 31 nM on human CCR2 and 240 nM on murine CCR2.
Take `CN(C)c1nc(C(F)(F)F)c(Oc2ccc(Cl)c(Cl)c2)c(=O)[nH]1` [Example 67]: the IC50 was 55 nM against human CCR2 and 1000 nM at murine CCR2.
In the same order, the values of `Cc1ccc(Cc2c(C(F)(F)F)nc(N)[nH]c2=O)cc1Cl` [Example 11, 2-amino-5-(3-chloro-4-methylbenzyl)-6-(trifluoromethyl)pyrimidin-4(3H)-one] are 42 nM and 560 nM.
In the same order, the values of `CCc1nc(C(F)(F)F)c(Cc2ccc(C(F)(F)F)c(Cl)c2)c(=O)[nH]1` [Example 19, 5-[3-Chloro-4-(trifluoromethyl)benzyl]-2-ethyl-6-(trifluoromethyl)pyrimidin-4(3H)-one] are 63 nM and 980 nM.
For `Nc1nc(C(F)(F)F)c(Cc2ccc(C(F)(F)F)c(Cl)c2)c(=O)[nH]1` [Example 14, 2-amino-5-[3-chloro-4-(trifluoromethyl)benzyl]-6-(trifluoromethyl)pyrimidin-4(3H)-one], in that order: 71 nM and 810 nM.
For `Nc1nc(C(F)(F)F)c(Cc2ccc(F)c(Cl)c2)c(=O)[nH]1` [Example 7, 2-amino-5-(3-chloro-4-fluorobenzyl)-6-(trifluoromethyl)pyrimidin-4(3H)-one], the IC50 against human CCR2 was 11 nM; at murine CCR2, 300 nM.
For `NC(=O)Cc1nc(C(F)(F)F)c(Oc2cccc(Cl)c2)c(=O)[nH]1` [Example 38], the IC50 at human CCR2 is 320 nM; on murine CCR2 it was 3300 nM.
In the same order, the values of `Nc1nc(C(F)(F)F)c(Oc2ccc(Cl)c(F)c2)c(=O)[nH]1` [Example 5, 2-amino-5-(4-chloro-3-fluorophenoxy)-6-(trifluoromethyl)pyrimidin-4(3H)-one] are 8.7 nM and 210 nM.
In the same order, the values of `NC(=O)Cc1nc(C(F)(F)F)c(Cc2cccc(Cl)c2)c(=O)[nH]1` [Example 43] are 270 nM and 880 nM.
For `NC(=O)Cc1nc(C(F)(F)F)c(Cc2ccc(F)c(Cl)c2)c(=O)[nH]1` [Example 44], in that order: 90 nM and 420 nM.
On to `NC(=O)Cc1nc(C(F)(F)F)c(Cc2ccc(C(F)(F)F)c(Cl)c2)c(=O)[nH]1` [Example 35, 2-{5-[3-Chloro-4-(trifluoromethyl)benzyl]-6-oxo-4-(trifluoromethyl)-1,6-dihydropyrimidin-2-yl}acetamide], for which the IC50 is 150 nM against human CCR2 and 3700 nM on murine CCR2.
For `CCc1nc(C(F)(F)F)c(Cc2ccc(Cl)c(Cl)c2)c(=O)[nH]1` [Example 31, 5-(3,4-dichlorobenzyl)-2-ethyl-6-(trifluoromethyl)pyrimidin-4(3H)-one], in that order: 120 nM and 220 nM.
For `NC(=O)Cc1nc(C(F)(F)F)c(Cc2ccc(Cl)c(Cl)c2)c(=O)[nH]1` [Example 50], in that order: 65 nM and 460 nM.
For `NC(=O)Cc1nc(C(F)(F)F)c(Oc2ccc(F)c(F)c2)c(=O)[nH]1` [Example 37], in that order: 480 nM and 3800 nM.
As for `NC(=O)Cc1nc(C(F)(F)F)c(Oc2ccc(Cl)c(Cl)c2)c(=O)[nH]1` [Example 46], the IC50 against human CCR2 is 20 nM; on murine CCR2, 440 nM.
In the case of `NC(=O)Cc1nc(C(F)(F)F)c(Cc2cc(F)cc(C(F)(F)F)c2)c(=O)[nH]1` [Example 42], the IC50 against human CCR2 was 400 nM; at murine CCR2, 2800 nM.
For `CCc1nc(C(F)(F)F)c(Cc2ccc(F)c(Cl)c2)c(=O)[nH]1` [Example 28, 5-(3-chloro-4-fluorobenzyl)-2-ethyl-6-(trifluoromethyl)pyrimidin-4(3H)-one], in that order: 44 nM and 290 nM.
For the molecule `CCc1nc(C(F)(F)F)c(Cc2ccc(Cl)c(F)c2)c(=O)[nH]1` [Example 32, 5-(4-chloro-3-fluorobenzyl)-2-ethyl-6-(trifluoromethyl)pyrimidin-4(3H)-one], the IC50 against human CCR2 amounted to 220 nM; at murine CCR2 it was 540 nM.
For `Nc1nc(C(F)(F)F)c(Oc2ccc(F)c(Cl)c2)c(=O)[nH]1` [Example 4, 2-amino-5-(3-chloro-4-fluorophenoxy)-6-(trifluoromethyl)pyrimidin-4(3H)-one], in that order: 6.5 nM and 220 nM.
Consider `Cc1nc(C(F)(F)F)c(Cc2ccc(Cl)c(Cl)c2)c(=O)[nH]1` [Example 18, 5-(3,4-Dichlorobenzyl)-2-methyl-6-(trifluoromethyl)pyrimidin-4(3H)-one], for which the 50% inhibitory concentration (IC50) against human CCR2 is 33 nM; at murine CCR2, 370 nM.
Turning to `O=c1[nH]c(C2CC2)nc(C(F)(F)F)c1Cc1ccc(F)c(Cl)c1` [Example 34, 5-(3-chloro-4-fluorobenzyl)-2-cyclopropyl-6-(trifluoromethyl)pyrimidin-4(3H)-one], the values for the IC50 on human CCR2 and on murine CCR2 were 150 nM and 520 nM, respectively.
On to `O=c1[nH]c(CO)nc(C(F)(F)F)c1Oc1ccc(F)c(Cl)c1` [Example 52], for which the 50% inhibitory concentration (IC50) against human CCR2 was 7.8 nM; on murine CCR2 it was 140 nM.
